# “Also recorded” adds a separate entry of the source.
# System: CLIP^+ B cells and lymphocyte subsets in spleen and lymph nodes
# Experiment: CpG-ODN (TLR9) induced chronic hyperimmune activation in B6.129 mice with or without peptide
# Assay type: in vivo, mouse
# Description: FIG. 14 depicts that administration of targeted peptide in combination with CpG-ODN reverses the inflammatory effects of TLR9 activation. FIG. 14a: B6.129 mice were injected with CpG-ODN, a TLR9 agonist without (black squares) or with VGV-hB (black circles). Total spleen cell recoveries (top panel) and lymph node cell recoveries (lower panel) at 24, 72, and 96 hours are reported. FIG. 14b: spleen cells from untreated B6.129 (upper left panel) mice, spleen cells from mice injected intraperitoneally with CpG-ODN for 48 hours (upper right panel), spleen cells from mice injected intraperitoneally with CpG-ODN+targeted peptide (VGV-hB) (lower left panel), or spleen cells from mice injected intraperitoneally with CpG-ODN+scrambled peptide (VGV-sP) (lower right panel), were harvested and stained using anti-mouse B220-PE Cy5 versus 15G4-FITC anti-mouse CLIP/I-Ab Cells were analyzed flow-cytometrically using two-dimensional dot plot analysis. FIGS. 14c & 14d: individual B6.129 animals were injected with CpG-ODN and one of three doses of peptide replacement, with either VGV-hB (FIG. 14c) or VGV-sB (FIG. 14d). As indicated, for each dose, four to six animals were injected with each of three doses, at 0.5, 5, and 50 μg per injection. Splenocytes were removed after 48 hours, stained using anti-mouse B220-PE versus 15G4-FITC anti-mouse CLIP/I-Ab. Cells were acquired and analyzed with flow cytometry, using two-dimensional dot plot analysis. Percentages of CLIP+ B cells were plotted using scatter plot analysis. The formula for the slope of each line is indicated in each of FIGS. 14c & 14d.
# FIG. 15 depicts the effects of targeted peptides on the distribution of TLR activated lymphoid subsets of B cells, CD4+ T cells, CD8+ T cells, and on CD4+ T regulatory cells. FIG. 15a: B6.129 mice were injected with CpG-ODN without (squares) or with (circles) VGV-hB. Spleen (solid black symbols) and lymph nodes (open symbols) were harvested at 24, 72, and 96 hours, and stained using anti-mouse B220-PE versus 15G4-FITC anti-mouse CLIP/I-Ab. Data were plotted as percent CLIP+ B cells from either spleen or node. FIG. 15b: B6.129 mice were injected with CpG-ODN without (squares) or with (circles) VGV-hB. Spleen (solid black symbols) and lymph nodes (open symbols) were harvested at 24, 72, and 96 hours, and stained using anti-mouse CD8-PE. Data were plotted as percent CD8+ T cells from either spleen or node as indicated. FIG. 15c: B6.129 mice were injected with CpG-ODN without (squares) or with (circles) VGV-hB. Spleen (solid black symbols) and lymph nodes (open symbols) were harvested at 24, 72, and 96 hours, and stained using anti-mouse CD4 GK1.5-FITC. Data were plotted as percent CD4+ T cells from either spleen or node. FIG. 15d: B6.129 mice were injected with CpG-ODN without (squares) or with (circles) VGV-hB. Spleen (solid black symbols) and lymph nodes (open symbols) were harvested at 24, 72, and 96 hours, and stained using anti-mouse CD4 GK1.5-PE versus anti-mouse FoxP3-FITC. Data were plotted as percent CD4+ FoxP3+ T cells from either spleen or node.
# FIG. 16 depicts that TLR activation and peptide reversal differentially affect cell death of lymphocyte subsets. FIG. 16a: B6.129 mice were injected with CpG-ODN without (solid black lines) or with VGV-hB (dashed lines). Cells were counted and viability was determined flow cytometrically. T cell viability 48 hours subsequent to CPG-ODN treatment alone is indicated by solid circles and solid black line; T cell viability, 48 hours after treatment with CpG-ODN and VGV-hB, is indicated by solid squares and dashed line. B cell viability, CpG-ODN treatment alone, is indicated by black x's on a solid black line; B cell viability after CpG-ODN and VGV-hB is indicated by solid black triangles and dashed lines. FIG. 16b: Ag-specific T cell hybridomas induce apoptosis B cells. FIG. 16c: Ag-specific T cell hybridomas induce apoptosis in resting and in CpG-ODN stimulated splenocytes, but not in antigen receptor engaged B cells. […]
# [1] = VGV-hB in combination with TLR 9 stimulation, FIG. 16a
sequence,measurement,setting,value
FRIMAVLAS,"effect of CpG-ODN on total cell numbers, absolute numbers of B cells and CLIP^+ B cell distribution between spleen and lymph node","24, 72, 96 hours, FIG. 15a",reduced
same,percent of CpG-induced CLIP^+ B cells in spleen,"CpG-ODN plus peptide intraperitoneally, 48 hours, FIG. 14b",reversed the effects of CPG alone
same,CD8^+ T cells,CpG-ODN with VGV-hB,promotes expansion of CD8^+ T cells
same,CD4^+FoxP3^+ Tregs in the lymph nodes,"FIG. 15d, 15e, listed as VGV-hB",reversible; also recorded: decreases in Tregs
same,B cell death,[1],increased B cell death
same,number of live CD4^+ T cells,[1],moderate increase in the number of live CD4^+ T cells
same,"reversal of CpG-ODN activation incl. percent of CLIP^+ B cells from total spleen, peptide titration","dose titration of peptide per mouse, FIGS. 14c and 14d",reversed the effects of CpG-ODN activation

# From patent US20100034839A1, “METHODS FOR TREATING VIRAL DISORDERS” (priority 2008, published 2010)
